Results taken from patent US12145899B2, “Deuterated analogs of acetyl-leucine” (INTRABIO LTD., priority 2018, dated 2024).

Tests used:
[1] = Pharmacokinetic study, plasma concentration after p.o. administration; assay type: in vivo, male BALB/c mice; settings: for ratio for AUClast, deuterated analyte/non-deuterated analyte / ratio for Cmax, deuterated analyte/non-deuterated analyte: mice; for Cmax / AUC(0-t): male, BALB/c, mouse, plasma, po, 100 mg/kg, male BALB/c mice
Protocol: Acetyl-leucine, acetyl-L-leucine, acetyl-leucine-2,3,3,4-d4 (1-rac), and acetyl-L-leucine-2,3,3,4-d4 (1) were administered to male BALB/c mice via the oral (p.o) route. Plasma and tissue samples were collected at predetermined time points and analysed using HR/MS.

NPC CHO cells = experiment: NPC cellular phenotype assay: lysosomal volume by LysoTracker flow cytometry; assay type: cell-based, Chinese Hamster; settings: for LysoTracker fluorescence, fold change relative to untreated samples (normalised as 1.0): NPC CHO cells, treated 7 days, Mean±SD, n=3, concentration of the compared values not printed in the legend (b616 names 1 mM)
Protocol: FIG. 1 is a line graph showing the effect of acetyl-leucine (referred to as IB1000) and acetyl-leucine-2,3,3,4-d4 (referred to as DIB1000) in a NPC cellular phenotype assay. NPC CHO cells were treated with 1, 10, 100, 1000, and 5000 μM of acetyl-leucine or acetyl-leucine-2,3,3,4-d4 for 7 days. Data shown is Mean±SD of 1-3 biological repeats. LysoTracker fluorescence is expressed as fold change relative to responses obtained from untreated samples (normalised as 1.0). Acetyl-leucine; 0.79±0.05, Acetyl-leucine-2,3,3,4-d4; 0.45±0.03, unpaired t test, Two-tailed test, **p<0.01, n=3. The technique applied in the present study is described in te Vruchte et al., J. Clin. Invest. 3:1320-1328 (2014). Briefly, human fibroblasts from patients with Tay-Sachs Disease, AB Variant were purchased from the NINDS Human Genetic Repository at the Coriell Institute, 403 Haddon Avenue, Camden, N.J., 08103, USA. Fibroblasts or Chinese Hamster Ovary cells were grown in T75 culture flasks, treated for 7 days with compounds, trypsinized, centrifuged (180 g, 5 min), washed twice with 1×PBS, centrifuged again and were stained with 1 ml of 100 nM LysoTracker-green DND-26 (Invitrogen) in PBS (10 min, in dark). Following incubation, cells were centrifuged (800 g, 5 min), resuspended in 0.5 ml of FACS buffer (0.1% BSA, 0.02 M NaN3 in 1×PBS) and kept on ice for a maximum of 1 h prior to flow cytometric analysis (BD Biosciences FACSCanto II or Accuri C6 Plus). The cytometer was calibrated using Cytometer Setup and Tracking beads (BD), and compensation was performed using cells stained with Lysotracker or Propidium Iodide using BD FACSDiva software (BD) or BD Accuri C6 Plus software (BD).

[2] = tested on: Tay-Sachs, AB Variant patient-derived fibroblast cells; experiment: Tay-Sachs AB human fibroblast cell assay: lysosomal volume by LysoTracker flow cytometry; assay type: cell-based; settings: for LysoTracker signal relative to untreated (1.00): Tay-Sachs AB Variant fibroblasts, 1 mM, 7 days, n=3
Protocol: FIG. 2 is bar graph showing the effect of acetyl-leucine (referred to as IB1000) and acetyl-leucine-2,3,3,4-d4 (referred to as DIB1000) in a Tay-Sachs AB human fibroblast cell assay. Tay-Sachs, AB Variant patient-derived fibroblast cells were treated with 1 mM acetyl-leucine or acetyl-leucine-2,3,3,4-d4 to compare LysoTracker signals. Untreated; 1.00±0.02, n=3, Acetyl-leucine; 0.97±0.01, n=3, Acetyl-leucine-2,3,3,4-d4; 0.91±0.02, n=3. One-way ANOVA was conducted for statistical analysis. */**p<0.003/0.02. The technique applied in the present study is described in te Vruchte et al., J. Clin. Invest. 3:1320-1328 (2014). Briefly, human fibroblasts from patients with Tay-Sachs Disease, AB Variant were purchased from the NINDS Human Genetic Repository at the Coriell Institute, 403 Haddon Avenue, Camden, N.J., 08103, USA. Fibroblasts or Chinese Hamster Ovary cells were grown in T75 culture flasks, treated for 7 days with compounds, trypsinized, centrifuged (180 g, 5 min), washed twice with 1×PBS, centrifuged again and were stained with 1 ml of 100 nM LysoTracker-green DND-26 (Invitrogen) in PBS (10 min, in dark). Following incubation, cells were centrifuged (800 g, 5 min), resuspended in 0.5 ml of FACS buffer (0.1% BSA, 0.02 M NaN3 in 1×PBS) and kept on ice for a maximum of 1 h prior to flow cytometric analysis (BD Biosciences FACSCanto II or Accuri C6 Plus). The cytometer was calibrated using Cytometer Setup and Tracking beads (BD), and compensation was performed using cells stained with Lysotracker or Propidium Iodide using BD FACSDiva software (BD) or BD Accuri C6 Plus software (BD).

[3] = deuterated or non-deuterated acetyl-L-leucine administered p.o. 100 mg/kg
[4] = deuterated or non-deuterated acetyl-leucine (racemate) administered p.o. 100 mg/kg
[5] = plasma analyte after p.o. acetyl-L-leucine-2,3,3,4-d4 (1) 100 mg/kg in saline
[6] = plasma analyte after p.o. acetyl-L-leucine-2,3,3,4-d4 (1) 100 mg/kg
[7] = plasma analyte after p.o. acetyl-leucine-2,3,3,4-d4 (1-rac) 100 mg/kg in saline
[8] = plasma analyte after p.o. acetyl-leucine-2,3,3,4-d4 (1-rac) 100 mg/kg
[9] = plasma analyte after p.o. acetyl-L-leucine 100 mg/kg
[10] = plasma analyte after p.o. acetyl-leucine 100 mg/kg

ratio for AUClast, deuterated analyte/non-deuterated analyte [1, 3]	ratio for Cmax, deuterated analyte/non-deuterated analyte [1, 3]	ratio for AUClast, deuterated analyte/non-deuterated analyte [1, 4]	ratio for Cmax, deuterated analyte/non-deuterated analyte [1, 4]	Cmax [1, 5] [ng/mL]	AUC(0-t) [1, 6] [ng·h/mL]	Cmax [1, 7] [ng/mL]	AUC(0-t) [1, 8] [ng·h/mL]	AUC(0-t) [1, 9] [ng·h/mL]	AUC(0-t) [1, 10] [ng·h/mL]	Compound	LysoTracker fluorescence, fold change relative to untreated samples (normalised as 1.0) (NPC CHO cells) [fold change]	LysoTracker signal relative to untreated (1.00) [2]	other results
1.61	1.75	1.32	1.14	29300	18200	3880	3430	–	–	[2H]C(C)(C)C([2H])([2H])[C@]([2H])(NC(C)=O)C(=O)O [acetyl-L-leucine-2,3,3,4-d4, Acetyl-L-leucine-2,3,3,4-d4]	–	–	–
–	–	–	–	–	–	–	–	–	–	CC(=O)NC(CC(C)C)C(=O)O (racemic) [acetyl-leucine, N-acetyl-DL-leucine]	0.79±0.05	0.97±0.01	–
–	–	–	–	–	–	–	–	573	57800	CC(=O)N[C@H](CC(C)C)C(=O)O [acetyl-D-leucine, N-acetyl-D-leucine, reference compound]	–	–	–
5.50	7.40	1.72	0.59	3230	3150	50600	99600	–	–	[2H]C(C)(C)C([2H])([2H])[C@@]([2H])(NC(C)=O)C(=O)O [acetyl-D-leucine-2,3,3,4-d4]	–	–	–
–	–	–	–	–	–	–	–	11400	2600	CC(=O)N[C@@H](CC(C)C)C(=O)O [acetyl-L-leucine, N-acetyl-L-leucine, reference compound]	–	–	–
–	–	–	–	–	–	–	–	–	–	[2H]C(C)(C)C([2H])([2H])[C@]([2H])(NC(C)=O)C(=O)O (racemic) [acetyl-leucine-2,3,3,4-d4, Acetyl-leucine-2,3,3,4-d4]	0.45±0.03	0.91±0.02	LysoTracker fluorescence level compared to acetyl-leucine (NPC CHO cells; NPC CHO cell line, 1 mM vs 1 mM acetyl-leucine): significant reduction; LysoTracker fluorescence level compared to acetyl-leucine ([2]; Tay-Sachs AB Variant human fibroblast cell line, 1 mM vs 1 mM acetyl-leucine): significant reduction
